The values below come from publication PMC5215806 (Chemical Science, 2016).

In one assay the test system is FzmM (His6-FzmM). Briefly: steady-state kinetics of N-hydroxylation. In kind it is biochemical, Streptomyces sp. NRRL S-149. The conditions noted are these: read-out: Km (apparent); co-substrates O2, NADPH, FAD.
In another assay the test system is FzmQ (His6-FzmQ). Briefly: spectrophotometric assay of CoA formation. The conditions noted are these: read-out: Km (apparent); co-substrate acetyl-CoA. In kind it is biochemical, Streptomyces sp. NRRL S-149.

Molecules are shown by their SMILES.

On to `N[C@@H](CC(=O)O)C(=O)O` [L-Asp], for which, in the assay on FzmM (His6-FzmM), the Km – broadly, the concentration of substrate that gives half-maximal velocity – came out at 790 ± 70 µM. `NNC(CC(=O)O)C(=O)O` (centres unmarked) [hydrazinosuccinate]: the Km in the assay with FzmQ (His6-FzmQ) turned out to be 4.2 ± 0.8 µM.
